# Laboratory results reported in patent publication US20070249690A1, “N-[2-(4-Pyridinyl)Ethyl]Benzamide Derivatives as Fungicides” (priority 2004, published 2007).
# Experiments:
# Botrytis cinerea = experiment: In vivo test on Botrytis cinerea (cucumber grey mould), cucumber plants; settings: 330 ppm; for effectiveness on Botrytis cinerea: comparison compounds of WO 01/11965
# Method: The active ingredient tested is prepared by potter homogenisation in a concentrated suspension type formulation at 100 g/l. This suspension is then diluted with water to obtain the desired active material concentration.
# Cucumber plants (Marketer variety) in starter cups, sown on a 50/50 peat soil-pozzolana substrate and grown at 18-20° C., are treated at the cotyledon Z11 stage by spraying with the aqueous suspension described above. Plants, used as controls, are treated with an aqueous solution not containing the active material.
# After 24 hours, the plants are contaminated by depositing drops of an aqueous suspension of Botrytis cinerea spores (150,000 spores per ml) on upper surface of the leaves. The spores are collected from a 15-day-old culture and are suspended in a nutrient solution composed of: • 20 g/L of gelatin • 50 g/L of cane sugar • 2 g/L of NH4NO3 • 1 g/L of KH2PO4
# The contaminated cucumber plants are settled for 5/7 days in a climatic room at 15-11° C. (day/night) and at 80% relative humidity.
# Grading is carried out 5/7 days after the contamination, in comparison with the control plants. Under these conditions, good (at least 50%) or total protection is observed at a dose of 330 ppm with the following compounds: 3.
# Alternaria brassicae = experiment: In vivo test on Alternaria brassicae (leaf spot of crucifers), radish plants; settings: 330 ppm, comparison compounds of WO 01/11965
# Method: The active ingredient tested is prepared by potter homogenisation in a concentrated suspension type formulation at 100 g/l. […] Radish plants (Pernot variety) in starter cups, sown on a 50/50 peat soil-pozzolana substrate and grown at 18-20° C., are treated at the cotyledon stage by spraying with the aqueous suspension described above. Plants, used as controls, are treated with an aqueous solution not containing the active material. After 24 hours, the plants are contaminated by spraying them with an aqueous suspension of Alternaria brassicae spores (40,000 spores per cm^3). The spores are collected from a 12 to 13 days-old culture. The contaminated radish plants are incubated for 6-7 days at about 18° C., under a humid atmosphere. Grading is carried out 6 to 7 days after the contamination, in comparison with the control plants. Under these conditions, good (at least 50%) or total protection is observed at a dose of 330 ppm with the following compounds: 1, 2, 3 and 4.
# Peronospora parasitica = experiment: Efficacy against Peronospora parasitica; type: in vivo; settings: 330 ppm, comparison compound of WO 01/11965
SMILES,"protection (good, at least 50%, or total) (Botrytis cinerea; preventive spray on cucumber plants, grading 5/7 days after contamination, versus control plants)",effectiveness on Botrytis cinerea (Botrytis cinerea),effectiveness on Alternaria brassicae (Alternaria brassicae),efficacy against Peronospora parasitica (Peronospora parasitica)
O=C(NCCc1cc(F)ncc1F)c1ccccc1C(F)(F)F [Compound 3],at least 50%,,,
"CCNC(=O)C(Cc1ncc(C(F)(F)F)cc1Cl)NC(=O)c1ccccc1 (stereo not shown) [compound 304, N-{1-ethylcarbamoyl-2-[3-chloro-5-(trifluoromethyl)-2-pyridinyl]-ethyl}-benzamide]",,zero effectiveness,,
"CNC(=O)C(Cc1ncc(C(F)(F)F)cc1Cl)NC(=O)c1ccc(OC)cc1 (stereo not shown) [compound 315, N-{1-methylcarbamoyl-2-[3-chloro-5-(trifluoromethyl)-2-pyridinyl]ethyl}-4-methoxybenzamide]",,zero effectiveness,,
"CCNC(=O)C(Cc1ncc(C(F)(F)F)cc1Cl)NC(=O)c1ccc(Cl)cc1 (stereo not shown) [compound 306, N-{1-ethylcarbamoyl-2-[3-chloro-5-(trifluoromethyl)-2-pyridinyl]ethyl}-4-chlorobenzamide]",,zero effectiveness,,
"CCNC(=O)C(Cc1ncc(C(F)(F)F)cc1Cl)NC(=O)c1cccc([N+](=O)[O-])c1 (stereo not shown) [compound 307, N-{1-ethylcarbamoyl-2-[3-chloro-5-(trifluoromethyl)-2-pyridinyl]ethyl}-3-nitrobenzamide]",,zero effectiveness,poor effectiveness,
"CNC(=O)C(Cc1ncc(C(F)(F)F)cc1Cl)NC(=O)c1ccccc1 (stereo not shown) [compound 314, N-{1-methylcarbamoyl-2-[3-chloro-5-(trifluoromethyl)-2-pyridinyl]ethyl}-benzamide]",,zero effectiveness,,
"O=C(Cc1cccs1)NCc1ncc(C(F)(F)F)cc1Cl [compound 101, N-{[3-chloro-5-(trifluoromethyl)-2-pyridinyl]methyl}-5-thienylacetamide]",,no efficacy,poor efficacy,no efficacy
"CNC(=O)C(Cc1ncc(C(F)(F)F)cc1Cl)NC(=O)c1ccc(-c2ccccc2)cc1 (stereo not shown) [compound 316, N-{1-methylcarbamoyl-2-[3-chloro-5-(trifluoromethyl)-2-pyridinyl]-ethyl}-4-phenylbenzamide]",,zero effectiveness,poor effectiveness,
"CCNC(=O)C(Cc1ncc(C(F)(F)F)cc1Cl)NC(=O)c1ccccc1Br (stereo not shown) [compound 310, N-{1-ethylcarbamoyl-2-[3-chloro-5-(trifluoromethyl)-2-pyridinyl]ethyl}-2-bromobenzamide]",,zero effectiveness,,
